Measured values published in BindingDB's records for patent US10266537 (St. Chuan University, 2019).
pIC50: −log10 of the molar value.

Target: Tyrosine-protein kinase ABL1 [T315I] (Homo sapiens, UniProt P00519, T315I)
Experiment: Kinase Inhibition Assays

- pIC50: 6.88
SMILES: C=CC(=O)N1CCC(n2nc(C#Cc3cc(C(=O)Nc4ccc(CN5CCN(C)CC5)c(C(F)(F)F)c4)ccc3C)c3c(N)ncnc32)CC1 [US10266537, Compound 121]
